Test results as given in BindingDB's records for doi:10.3109/14756366.2013.765415 (Universidad de la República, 2014).

Experiments:
[1] = target: Triosephosphate isomerase (Homo sapiens, UniProt P60174); assay: Inhibition Assay; settings: pH 7.4; 37 °C
Procedure: (§1) The reaction mixture (1 mL, pH 7.4) contained 100mM triethanolamine, 10mM EDTA, 0.2mM NADH, 1mM glyceraldehyde 3-phosphate (GAP) and 0.9 units of α-glycerol phosphate dehydrogenase (α-GPDH). The reaction was initiated by addition of 5 ng/mL of the corresponding TIM or the corresponding TIM pre-incubated with the studied compounds. In these cases, inhibition assays, the enzymes were pre-incubated for 2 h at 37 °C with the studied compounds.

[2] = target: Triosephosphate isomerase, glycosomal (Trypanosoma brucei brucei, UniProt P04789); assay: Inhibition Assay; settings: pH 7.4; 37 °C
Chain of Triosephosphate isomerase, glycosomal (P04789 whole entry): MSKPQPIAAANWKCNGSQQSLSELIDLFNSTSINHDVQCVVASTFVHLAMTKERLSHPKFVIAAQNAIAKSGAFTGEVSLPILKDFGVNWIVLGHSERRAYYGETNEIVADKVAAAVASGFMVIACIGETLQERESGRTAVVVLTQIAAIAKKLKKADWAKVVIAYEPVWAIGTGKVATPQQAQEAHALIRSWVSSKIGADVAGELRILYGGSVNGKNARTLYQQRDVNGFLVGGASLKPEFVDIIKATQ
Procedure: as §1

SMILES	IC50 [1]	IC50 [2]
Oc1ccc2nc3cc(Cl)c(Cl)cc3nc2c1 [TIM inhibitor, 2]	> 100 µM	
Cc1ccc(-c2nsc(=O)[nH]2)cc1 [TIM inhibitor, 1]	100 µM	
O=C1C(=Cc2ccc([N+](=O)[O-])o2)C(=O)N(Cc2ccccc2)SN1Cc1ccccc1 [TIM inhibitor, 3]	> 100 µM	34 µM
